Counter-ions that a name gives are not always drawn.

In data set [1] the test system is anti-emetic power relative to apomorphine in dogs. Kind of data set: anti-emetic power relative to apomorphine in dogs by the method of Chen and Ensor (subcutaneous administration). In kind it is in vivo. Conditions: Canis lupus familiaris, sc, Table 1, s.c. 30 minutes before apomorphine 100 ug/kg s.c. The procedure: (§1) The pharmacodynamic tests on the compounds of this invention, and particularly a study of their anti-emetic power have shown strong activity on the nervous system as apomorphine antagonists. […] In accordance with the above-mentioned procedures, the compounds of the invention were administered subcutaneously 30 minutes before the administration of apomorphine, which was administered subcutaneously in a dose of 100 ug/kg.

The nature of data set [2]: acute toxicity in the mouse. Conditions: in vivo. The text has this: The acute toxicity of the compounds of the invention has been studied in the mouse. The LD50 's are set out in the following Table 3. […] This characteristic is highly desirable because the possibility of toxic effects due to the administration of therapeutic doses is thereby minimized.
The subject of data set [3] is chewing stereotypes induced by apomorphine. Kind of data set: antagonism to chewing stereotypes induced by apomorphine in rats, method of Janssen. In kind it is in vivo. Conditions: Table 4, apomorphine 1.25 mg/kg; for ED50: Rattus norvegicus, sc; for % antagonism to chewing stereotypes induced by apomorphine: s.c., at 200. As to the method: The neurological activity of the compounds of the invention was compared to the activity of prior art compounds in U.S. Pat. No. 4,172,143 and with a standard in this field, Sulpiride, N-[(1-ethylpyrrolidinyl-2)methyl]-2-methoxy-5 sulphamoyl benzamide. The compounds were tested for antagonism to chewing stereotypes induced by apomorphine (1.25 mg/kg in rats, according to the method of Janssen in Arzn. Forsch. 1960-10, 1003-5, under subcutaneous administration and the results were as follows: […]

In data set [4] the test system is chewing stereotypes induced by dexamphetamine. The data set can be described thus: antagonism to chewing stereotypes induced by dexamphetamine in rats, Janssen's method. In kind it is in vivo. The conditions noted are these: Table 5, dexamphetamine 10 mg/kg; for ED50: Rattus norvegicus, sc. The procedure: The compounds were also tested for antagonism to chewing stereotypes induced by dexamphetamine (10 mg/kg) in rats, by Janssen's method in Arzn. Forsch. 1961, 11, 932-938 under subcutaneous administration with the following results: […]

Data set [5] deals with biting sterotypes induced by apomorphine. The data set can be described thus: potentiation of biting sterotypes induced by apomorphine in mice, Pedeson's method. Conditions: Mus musculus, ip, Table 6, apomorphine 10 mg/kg, interperitoneal. In kind it is in vivo. As to the method:
The compounds were also tested for potentiation of biting sterotypes induced by apomorphine (10 (mg/kg) in mice, under interperitoneal administration in accordance with Pedeson's method in Brit J. Pharmacol. 1968, 34 (1), 219-220 with the following results: […]

Data set [6] concerns anti-emetic power relative to apomorphine in dogs. The data set can be described thus: anti-emetic ED50 under oral administration (procedure of Example 29). In kind it is in vivo. The conditions noted are these: Canis lupus familiaris, Table 2. As to the method:
as §1
Compounds SLC-036, 77205 and 77149 are disclosed in U.S. Pat. No. 4,172,143 for comparison purposes, as Examples 10, 33 and 37 therein. The results for those compounds are reported in Table IX of the '143 Patent and are believed to represent results from oral administration.
Pharmacological tests were carried out under oral administration to determine anti-emetic ED50 in accordance with the procedure of Example 29 with the following results: […]

The test system is the same in data set [7]. The conditions noted are these: cited from earlier work; for ED50 (Prior Art Compounds, Results Reported in U.S. Pat No. 4,172,143): Table 1, method of administration believed oral; for ED50 (oral): Table 2, prior art compounds, same values as reported in U.S. Pat. No. 4,172,143.

For orientation: ED50 means the midpoint of the dose-response relation. A word on the LD50: it is the dose at which mortality reaches 50%. High values mean lower toxicity, low ones greater toxicity. Regarding `CCS(=O)(=O)c1cc(C(=O)NCC2CCCN2CC2=CCCCC2)c(OC)cc1N` (centres unmarked) [Example 11, N-[1-(1-cyclohexenylmethyl)-2-pyrrolidinylmethyl]-2-methoxy 4-amino 5-ethylsulphonyl benzamide, phosphate], the ED50 in data set [1] worked out at 0.00057 mg/kg; in data set [3] it was 13.7 mg/kg; in data set [4], 5.4 mg/kg. Moreover, the median lethal dose (LD50) in data set [2] (I.V. (intravenous)) is 29.5 to 31.8 mg/kg; in data set [2] (P.O. (oral)), 510 to 555 mg/kg; in data set [2] (ip, I.P. (intraperitoneal)) it was 180 to 181 mg/kg; in data set [2] (sc, S.C. (subcutaneous)), 343 to 360 mg/kg.
For the compound `CNS(=O)(=O)c1cc(OC)c(OC)c(C(=O)NCC2CCCN2CC2=CCCCC2)c1` (centres unmarked) [Example 12, N-(1-cyclohexenylmethyl 2-pyrrolidinylmethyl) 2,3-dimethoxy 5-methylsulphamoyl benzamide], the ED50 in data set [1] was 0.00115 mg/kg; in data set [3], 4 mg/kg; in data set [4], 1.5 mg/kg; in data set [5], 0.33 mg/kg. Moreover, the LD50 was 57.8 to 62 mg/kg in data set [2] (I.V. (intravenous)); 540 to 560 mg/kg in data set [2] (P.O. (oral)); 198 to 200 mg/kg in data set [2] (ip, I.P. (intraperitoneal)); 297 to 319 mg/kg in data set [2] (sc, S.C. (subcutaneous)).
For `COc1ccc(S(N)(=O)=O)cc1C(=O)NCC1CCCN1CC1=CCCCC1` (centres unmarked) [Example 14, N-[1(1-cyclohexenylmethyl) 2-pyrrolidinylmethyl]2-methoxy 5-sulphamoyl benzamide], the ED50 in data set [1] was 0.00085 mg/kg; in data set [6], 0.0012 mg/kg; in data set [3], 16.4 mg/kg; in data set [4], 10 mg/kg. Besides, the 50% lethal dose (LD50) lay in the range of 82.5 to 85.5 mg/kg in data set [2] (I.V. (intravenous)); 525 to 542 mg/kg in data set [2] (P.O. (oral)); 294 to 317 mg/kg in data set [2] (ip, I.P. (intraperitoneal)); 630 to 640 mg/kg in data set [2] (sc, S.C. (subcutaneous)).
Regarding `CCS(=O)(=O)c1cc(C(=O)NCC2CCCN2CC2CCCCC2)c(OC)cc1N` (centres unmarked) [Example 8, N-(1-cyclohexylmethyl-2-pyrrolidinyl-methyl)-2-methoxy-4-amino-5-ethylsulphonyl-benzamide], the ED50 in data set [1] is 0.002 mg/kg; in data set [3], 33 mg/kg; in data set [4], 15.4 mg/kg. The LD50 in data set [2] (I.V. (intravenous)) was in the range of 37 to 40.8 mg/kg; in data set [2] (P.O. (oral)), 348 to 380 mg/kg; in data set [2] (ip, I.P. (intraperitoneal)), 133 to 145 mg/kg; in data set [2] (sc, S.C. (subcutaneous)) it was 336 to 342 mg/kg.
Regarding `COc1ccc(S(N)(=O)=O)cc1C(=O)NCC1CCCN1CC1CC1` (centres unmarked) [SLC-036, N--(1cyclopropylmethyl 2pyrrolidinylmethyl)-2-methoxy-5-sulphamoyl benzamide, reference compound], in data set [3], the “% antagonism to chewing stereotypes induced by apomorphine” value came to 0%. In addition, the “% antagonism to chewing stereotypes induced by dexamphetamine” value in data set [4] (s.c., at 100 mg/kg) is recorded as 0%. Besides, in data set [7], the “ED50 (Prior Art Compounds, Results Reported in U.S. Pat No. 4,172,143)” value is 0.037 mg/kg and the “ED50 (oral)” value is 0.037 mg/kg.
As to `CNS(=O)(=O)c1ccc(OC)c(C(=O)NCC2CCCN2CC2=CCCCC2)c1` (centres unmarked) [Example 15, N-(1-cyclohexenylmethyl 2-pyrrolidinylmethyl) 2-methoxy 5-methylsulphamoyl benzamide], the 50% effective dose (ED50) in data set [1] amounted to 0.00021 mg/kg; in data set [6], 0.0011 mg/kg; in data set [3] it was 1.22 mg/kg; in data set [4], 0.78 mg/kg. Also, the 50% lethal dose (LD50) in data set [2] (I.V. (intravenous)) is 44.2 to 46.5 mg/kg; in data set [2] (P.O. (oral)) it was 540 to 558 mg/kg; in data set [2] (ip, I.P. (intraperitoneal)) it was 204 to 208 mg/kg; in data set [2] (sc, S.C. (subcutaneous)), 462 to 494 mg/kg.
In data set [1], `CNS(=O)(=O)c1cc(C(=O)NCC2CCCN2CC2CC2)c(OC)cc1N` (centres unmarked) [Example 3, N-(1-cyclopropylmethyl 2-pyrrolidinylmethyl)-2-methoxy 4-amino 5-methylsulphamoyl benzamide] showed an ED50 of 0.0004 mg/kg.
On to `CNS(=O)(=O)c1ccc(OC)c(C(=O)NCC2CCCN2CC2=CCCCCC2)c1` (centres unmarked) [Example 13, N-(1-cycloheptenylmethyl 2-pyrrolidinylmethyl) 2-methoxy 5-methylsulphamoylbenzamide], for which the ED50 in data set [1] stood at 0.0005 mg/kg; in data set [3], 1.5 mg/kg; in data set [4], 0.54 mg/kg. Moreover, the 50% lethal dose (LD50) in data set [2] (I.V. (intravenous)) fell in the range of 45.5 to 48 mg/kg; in data set [2] (P.O. (oral)), 312 to 330 mg/kg; in data set [2] (ip, I.P. (intraperitoneal)) it was 128 to 140 mg/kg; in data set [2] (sc, S.C. (subcutaneous)), 322 to 336 mg/kg.
As to `COc1ccc(S(N)(=O)=O)cc1C(=O)NCC1CCCN1CC1CCCCC1` (centres unmarked) [Example 77205, N--(1cyclohexylmethyl 2pyrrolidinylmethyl)-2-methoxy-5-sulphamoyl benzamide, reference compound], in data set [3], the “% antagonism to chewing stereotypes induced by apomorphine” value is given as 20%. It took a dose of 19 mg/kg to reach the 50% effect level in data set [4] (ED50). In addition, in data set [7], the “ED50 (Prior Art Compounds, Results Reported in U.S. Pat No. 4,172,143)” value is 0.014 mg/kg and the “ED50 (oral)” value is 0.014 mg/kg.
Consider `COc1cc(S(N)(=O)=O)cc(C(=O)NCC2CCCN2CC2=CCCCC2)c1OC` (centres unmarked) [Example 6, N-(1-cyclohexenyl-methyl-2-pyrrolidylmethyl)-2,3-dimethoxy 5-sulphamoyl benzamide], for which the ED50 in data set [1] was 0.0028 mg/kg; in data set [3] it was 40 mg/kg; in data set [5] it was 2.6 mg/kg. Also, the mortality in data set [2] (ip, I.P., at 240 mg/kg, read-out: 60% at 240 mg/kg (acute toxicity)) amounted to 60%.
As to `CC[S+]([O-])c1cc(C(=O)NCC2CCCN2CC2CC2)c(OC)cc1N` (centres unmarked) [Example 1, N-(1-cyclopropylmethyl 2-pyrrolidinylmethyl)-2-methoxy 4-amino 5-ethylsulphinyl benzamide], it took a dose of 0.0007 mg/kg to reach the 50% effect level in data set [1] (ED50).
As for `COc1ccc(S(=O)(=O)N(C)C)cc1C(=O)NCC1CCCN1CC1CC1` (centres unmarked) [Example 77149, N--(1cyclopropylmethyl 2pyrrolidinylmethyl)-2-methoxy-5-dimethylsulphamoyl benzamide], in data set [7], the “ED50 (Prior Art Compounds, Results Reported in U.S. Pat No. 4,172,143)” value was 0.04 mg/kg and the “ED50 (oral)” value is 0.04 mg/kg.
`CNS(=O)(=O)c1cc(OC)c(OC)c(C(=O)NCC2CCCN2CC2CC2)c1` (centres unmarked) [Example 5, N-(1-cyclopropylmethyl 2-pyrrolidinylmethyl)-2,3-dimethoxy 5-methylsulphamoyl benzamide] showed an ED50 in data set [1] of 0.0005 mg/kg.
As to `CCS(=O)(=O)c1cc(OC)c(OC)c(C(=O)NCC2CCCN2CC2CC2)c1` (centres unmarked) [Example 16, N-(1-cyclopropylmethyl 2-pyrrolidinylmethyl) 2,3-dimethoxy 5-ethylsulphonylbenzamide, hydrochloride], the median effective dose (ED50) in data set [6] was found to be 0.00023 mg/kg; in data set [3], 3.2 mg/kg; in data set [4] it was 1.34 mg/kg; in data set [5], 0.25 mg/kg. For the same compound, the LD50 lay in the range of 92.9 to 97.2 mg/kg in data set [2] (I.V. (intravenous)); 588 to 598 mg/kg in data set [2] (P.O. (oral)); 303 to 338 mg/kg in data set [2] (ip, I.P. (intraperitoneal)); 595 to 597 mg/kg in data set [2] (sc, S.C. (subcutaneous)).
Regarding `COc1cc2[nH]nnc2cc1C(=O)NCC1CCCN1CC1=CCCCC1` (centres unmarked) [Example 22, N-(1-cyclohexenylmethyl 2-pyrrolidinylmethyl) 2-methoxy 4,5-azimido benzamide], in data set [1], it took a dose of 0.002 mg/kg to reach the 50% effect level (ED50).
Take `CCS(=O)(=O)c1cc(C(=O)NCC2CCCN2CC2=CCCC2)c(OC)cc1N` (centres unmarked) [Example 10, N-(1-cyclopentenylmethyl 2-pyrrolidinylmethyl)-2-methoxy 4-amino 5-ethylsulphonyl benzamide]: the 50% effective dose (ED50) in data set [1] came out at 0.0013 mg/kg; in data set [4], 14 mg/kg. The median lethal dose (LD50) fell in the range of 41.8 to 42 mg/kg in data set [2] (I.V. (intravenous)); 980 to 990 mg/kg in data set [2] (P.O. (oral)); 204 to 212 mg/kg in data set [2] (ip, I.P. (intraperitoneal)); 330 to 360 mg/kg in data set [2] (sc, S.C. (subcutaneous)).
